Reference: paper doi:10.1101/2024.10.13.618094 (bioRxiv, 2024)
Entries after “also recorded” stand apart in the source; their conditions may differ. *1 amine or outer side, *2 acyl side, *3 side chain or, on linkers, in order; H or OH if unused. Where a SMILES comes first, the peptide text is derived from it. [ ]: non-standard residue; d: D form. The star is where a group is joined. Pheol(OBn) = c1ccc(COC[C@H](Cc2ccccc2)N*)cc1; Dnp = O=[N+]([O-])c1ccc(*)c([N+](=O)[O-])c1; NH(4-phenylbutyl) = c1ccc(CCCCN*)cc1; Mca = COc1ccc2c(CC(=O)*)cc(=O)oc2c1; X1 = C[C@H](N[*:1])C(=O)C(=O)[*:2]

What was measured:
[1] = tested on: purified wild-type RHBDL4; experiment: TAMRA-FP active-site probe competition on purified RHBDL4; type: binding, human; settings: purified RHBDL4, SDS-PAGE, Cy3 fluorescence; compared with inactive RHBDL4-S144A control
Description: Inhibition of recombinant purified RHBDL4 proteolytic activity by N-substituted peptidyl α-ketoamides. (A) Proteolytic rates of the fluorescent substrate IQ6 by RHBDL4 in the presence of increasing concentrations of the general protease inhibitors, Dicyclocoumarin (DCI), tosyl-phenylalanine-chloromethyl ketone (TPCK) and 4-(2-aminoethyl) benzenesulfonyl fluoride (AEBSF). […] (D) Representative inhibition curve derived from measuring rates of RHBDL4 proteolysis of the fluorescent substrate IQ6 with increasing concentrations of compound 1a. (E) Same as (D), except inhibition curve was derived from using increasing concentrations of compound 1b. […] Reactions were quenched with 1×Laemmli buffer and loaded on 12% SDS-PAGE gel. Post-transfer membranes were visualized using a fluorescence Cy3 filter and by western blotting using an α-RHBDL4 antibody. For (A), (D), and (E), all inhibitors were pre-incubated with RHBDL4 for 1hr and allowed to react with the IQ6 substrate for 2 h. Assays were performed in triplicate, and data points represent the average ± standard deviation.
In vitro inhibition of RHBDL4 activity with TMED7-derived peptidyl α-ketoamides. […] (B) Representative inhibition curve derived from measuring rates of RHBDL4 proteolysis of the fluorescent substrate IQ6 with increasing concentrations of compound 3. (C) Same as (B), except inhibition curve was derived from using increasing concentrations of compound 4. […] Reactions were quenched with 1×Laemmli buffer and loaded on 12% SDS-PAGE gel. Post-transfer membranes were visualized using a fluorescence Cy3 filter and by western blotting using an α-RHBDL4 antibody. […] For (B) and (C), all inhibitors were pre-incubated with RHBDL4 for 1hr and allowed to react with the IQ6 substrate for 2 h. All assays were performed in triplicate, and data points represent the average ± standard deviation.

[2] = tested on: RHBDL4-GFP in ER-enriched microsomes from HEK293T cells; experiment: TAMRA-FP competition label assay in ER-enriched microsomes; type: binding, human; settings: 100 μM compound, preincubated 1 h at 37°C; 500 nM TAMRA-FP for 2 h at 37°C; immunoprecipitation, Cy3 fluorescence
Description: We aimed to investigate our RHBDL4 inhibitors in a more physiological context. […] To achieve this, we prepared ER-enriched microsomes from HEK293T cells transfected with RHBDL4-GFP, then pre-incubated microsomes with 100 μM of each compound, before TAMRA-FP was added to the microsomal fractions. RHBDL4-GFP was immunoprecipitated and visualized for TAMRA-FP fluorescence signal and western blotting. […] We surmise that the peptidyl α-ketoamides may have low membrane penetrability, making them weak inhibitors in microsome and cell-based assays. Further refinement is needed to design peptidyl α-ketoamides that effectively penetrate lipids and inhibit RHBDL4 activity in its native context.
Figure 6. RHBDL4 inhibition studies in ER-enriched microsomes ER-enriched microsomes were preincubated with 100 μM of compounds or DMSO vehicle control followed by addition of 500 nM of TAMRA-FP serine hydrolase probe. […] TAMRA-FP labeling was analyzed via Cy3 filter followed by western blotting using α-GFP antibody.
ER-enriched microsomes were obtained by hypotonic swelling and centrifugation from Hek293T cells 24 h after transfection. […] TAMRA-FP-labelling was analyzed in the wet gel with a green light source (535 nm) and a Cy3 filter by detecting fluorescence emission using ImageQuant 800 Fluor CCD imager (Cytiva) followed by western blotting using a α-GFP antibody (Roche).

recombinant human RHBDL4 = molecular target: T1, recombinant human RHBDL4 (Homo sapiens, UniProt Q8TEB9); experiment: FRET-based cleavage assay with fluorogenic substrates (Michaelis–Menten kinetics); type: biochemical; settings: pH 8, 37°C, 0.1% DDM, Michaelis–Menten fit, triplicate, average ± SD
T1 construct: The entire RHBDL4 and RHBDL4-S144A cDNAs were subcloned into the pcDNA3.1 vector; 6xHis (C, cleaved yes); made in house; host or cells: Freestyle 293-F cells (transient transfection, pcDNA3.1-HisA)
T1 sequence (Q8TEB9 1-315): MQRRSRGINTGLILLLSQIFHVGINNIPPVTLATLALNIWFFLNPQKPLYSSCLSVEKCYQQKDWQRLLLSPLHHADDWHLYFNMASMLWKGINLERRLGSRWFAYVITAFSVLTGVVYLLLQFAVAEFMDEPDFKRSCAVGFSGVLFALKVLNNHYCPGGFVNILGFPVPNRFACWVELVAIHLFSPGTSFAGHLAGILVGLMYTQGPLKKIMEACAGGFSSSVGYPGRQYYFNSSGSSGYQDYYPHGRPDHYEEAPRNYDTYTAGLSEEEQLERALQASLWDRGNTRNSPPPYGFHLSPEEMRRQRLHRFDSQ
Description: We employed a FRET-based assay to determine the activity of RHBDL4. The RHBDL4 proteolytic activity was tested against a suite of fluorescent, internally quenched (IQ) substrates that have been previously used to test the activity of rhomboid protease PARL (Fig. S2A)([Lysyk et al. 2021]). These substrates consist of 7–10-mer peptide sequences flanked by the fluorescent donor group 7-methoxycourmarin (mc) on the N terminus and quencher acceptor group dinitrophenol (dnp) on the C terminus (Fig. 2A) ([Arutyunova et al. 2018]). In general, the donor and acceptor are in proximity within the fluorogenic peptides and show low fluorescence due to internal quenching. Hydrolysis of the peptide bond between the donor and the acceptor leads to physical separation of the FRET pairs and increase in fluorescence, which would be proportional to RHBDL4 protease activity (Fig. 2A).
The reaction setup in our FRET assay enabled the direct determination of Michaelis–Menten kinetic parameters Km and kcat for the cleavage of IQ6, IQ41, and IQ46 by RHBDL4. Our fluorescence reading data were converted to μM/h using the standard calibration curve for all three IQ substrates, and the correction factor for the inner filter effect was applied. We confirmed that purified RHBDL4 followed Michaelis–Menten kinetics with KmIQ6=10.73±2μM , KmIQ41=5.63±2μM , and KmIQ46=7.19±1μM and kcatIQ6=7.33±0.6h^−1 , kcatIQ41=2.41±0.6h^−1 , and kcatIQ46=3.62±0.08h^−1 (Fig. 2B and S2B).
The enzymatic assay was performed as previously described (Arutyunova et al., 2014, [Arutyunova et al., 2018]). […] The FRET-based cleavage assay was conducted in a fluorescence multi-well plate reader (SynergyMx, BioTek, VT, USA). Upon excitation at 320 nm, the emission intensity at 400 nm was recorded for 2 h at minimal intervals under shaking conditions and plotted using the GraphPad PRISM software. The initial velocities were defined as the slopes of the curve of the generated product as a function of time. The plots of the generated product against the corresponding substrate concentration were fitted with the Michaelis–Menten equation. Catalytic parameters were extrapolated using GraphPad PRISM. […] The samples were desalted using C18 tips (Rainin, Columbus, OH, USA), eluted in 80% acetonitrile, and dried down in a vacuum centrifuge prior to mass spectrometry analysis.
All the calculations for Km, Vmax, and Kcat for RHBDL4 and its mutants were performed using GraphPad PRISM.

RHBDL4 [3] = experiment: 1.5 μM of wild-type RHBDL4 in activity buffer containing 20 mM citrate phosphate pH 8.0, 150 mM NaCl, 20% (v/v) glycerol, and 0.1% (w/v) DDM; settings: human, 37°C, up to 2 h
RHBDL4 [4] = experiment: 1.5 μM of wild-type RHBDL4 (purified recombinant); settings: human, room temperature, up to 4 h
[5] = molecular target: T2, rhomboid protease RHBDL4, wild type (recombinant, purified) (human) (UniProt Q8TEB9)
T2 sequence: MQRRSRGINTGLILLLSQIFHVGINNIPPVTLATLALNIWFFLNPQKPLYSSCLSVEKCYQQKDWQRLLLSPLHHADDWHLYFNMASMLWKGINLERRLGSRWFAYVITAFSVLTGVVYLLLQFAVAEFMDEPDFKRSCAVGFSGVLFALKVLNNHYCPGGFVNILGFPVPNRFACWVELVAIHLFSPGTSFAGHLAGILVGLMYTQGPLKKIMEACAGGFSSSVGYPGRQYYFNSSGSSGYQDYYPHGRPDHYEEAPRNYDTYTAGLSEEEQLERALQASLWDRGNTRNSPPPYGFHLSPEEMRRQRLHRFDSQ

[6] = molecular target: T3, rhomboid protease RHBDL4, wild type (recombinant, purified) (human, UniProt Q8TEB9 1-315); experiment: cell-based or functional assay
T3 sequence (looked up): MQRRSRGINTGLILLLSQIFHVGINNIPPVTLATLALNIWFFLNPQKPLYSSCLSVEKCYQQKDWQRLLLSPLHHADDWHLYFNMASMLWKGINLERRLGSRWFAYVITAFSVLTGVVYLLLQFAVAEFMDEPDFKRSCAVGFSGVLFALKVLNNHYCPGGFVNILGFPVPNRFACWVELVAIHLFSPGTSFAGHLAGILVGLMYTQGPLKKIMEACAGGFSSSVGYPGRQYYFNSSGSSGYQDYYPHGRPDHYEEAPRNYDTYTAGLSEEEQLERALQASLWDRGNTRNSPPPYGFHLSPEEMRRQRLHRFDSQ

**Q.** CC(=O)N[C@H](C(=O)N[C@@H](CCCNC(=N)N)C(=O)NC(Cc1c[nH]cn1)C(=O)N[C@@H](C)C(=O)C(=O)N[C@H](COCc1ccccc1)Cc1ccccc1)C(C)C (some centres unmarked) [Compound 1a] was tested. Which “Competition with TAMRA-FP probe for the RHBDL4 catalytic site (fluorescent signal)” value [1] did it give?
**A.** significant reduction of fluorescent signal

**Q.** What does the source list for CSCC[C@H](NC(=O)[C@H](CCC(N)=O)NC(C)=O)C(=O)N[C@@H](CCC(=O)O)C(=O)N[C@@H](CO)C(=O)N[C@@H](C)C(=O)C(=O)NCCCCc1ccccc1 [Compound 3] (Ac-QMES[X1]-{NH(4-phenylbutyl)})?
**A.** Effect on TAMRA-FP labeling of RHBDL4-GFP in microsomes [2]: reduced; Competition with TAMRA-FP probe for the RHBDL4 catalytic site (fluorescent signal) [1]: reduction in overall fluorescent signal

**Q.** Which results are given for CSCC[C@H](NC(=O)[C@H](CCC(N)=O)NC(C)=O)C(=O)N[C@@H](CCC(=O)O)C(=O)N[C@@H](CO)C(=O)N[C@@H](C)C(=O)C(=O)N[C@H](COCc1ccccc1)Cc1ccccc1 [Compound 4] (Ac-QMES[X1]-{Pheol(OBn)})?
**A.** Effect on TAMRA-FP labeling of RHBDL4-GFP in microsomes [2]: reduced; Competition with TAMRA-FP probe for the RHBDL4 catalytic site (fluorescent signal) [1]: reduction in overall fluorescent signal

**Q.** “Ac-QMESA-4mc [KSp207, TMED7-derived fluorescent substrate Ac-QMESA-4mc]” was tested. Which Km (recombinant human RHBDL4) did it give?
**A.** 3.09 ± 1 µM

**Q.** With “Mca-Arg-Pro-Pro-Gly-Phe-Ser-Ala-Phe-Lys (DNP)-OH (Mca-RPPGFSAFK(Dnp)-OH; SMILES COc1ccc2c(CC(=O)N[C@@H](CCCNC(=N)N)C(=O)N3CCC[C@H]3C(=O)N3CCC[C@H]3C(=O)NCC(=O)N[C@@H](Cc3ccccc3)C(=O)N[C@@H](CO)C(=O)N[C@@H](C)C(=O)N[C@@H](Cc3ccccc3)C(=O)N[C@@H](CCCCNc3ccc([N+](=O)[O-])cc3[N+](=O)[O-])C(=O)O)cc(=O)oc2c1) [IQ6, fluorescent internally quenched substrate mca-…(dnp)]” as the molecule, how does the Km (recombinant human RHBDL4) read?
**A.** 10.7 ± 2 µM

**Q.** With mca-AVFLSAVAG(dnp) as the molecule, how does the not cleaved (RHBDL4 [3]) read?
**A.** did not observe any RHBDL4-catalyzed activity

**Q.** How did the Km (recombinant human RHBDL4) turn out when “mca-FLVRGK(dnp) [IQ46, fluorescent internally quenched substrate mca-FLVRGK(dnp)]” was run?
**A.** 7.19 ± 1 µM

**Q.** “mca-FVTKGK(dnp) [IQ41, fluorescent internally quenched substrate mca-FVTKGK(dnp)]” was tested. Which Km (recombinant human RHBDL4) did it give?
**A.** 5.63 ± 2 µM

**Q.** For mca-RPKPYAvWMK(dnp), which not cleaved (RHBDL4 [3]) is on record?
**A.** did not observe any RHBDL4-catalyzed activity

**Q.** With mca-RPPGFSAFK(dnp) as the molecule, how does the cleaved bond (RHBDL4 [4]) read?
**A.** Ala-Phe, 4 h; also recorded: Ser-Ala, 4 h

**Q.** “peptidyl α-ketoamide compound 1a (Ac-VRHA-CONH-CH(Bn)-CH2OBn) (peptide)” was tested. Which IC50 of inhibition of RHBDL4 proteolysis of the fluorescent substrate IQ6 (in vitro FRET-based cleavage assay; 1 h pre-incubation, 2 h reaction) [5] did it give?
**A.** 2310 nM

**Q.** How did the IC50 of inhibition of RHBDL4 proteolysis of the fluorescent substrate IQ6 (in vitro FRET-based cleavage assay; 1 h pre-incubation, 2 h reaction) [5] turn out when “peptidyl α-ketoamide compound 1b (Ac-VRHA-CONH-CH(Bn)-CH2OBn) (peptide)” was run?
**A.** 6100 nM

**Q.** How did the IC50 of inhibition of RHBDL4 activity (in vitro FRET-based cleavage assay) [5] turn out when Ac-PGFSA-{α‑ketoamide ‑CONH‑(CH2)4‑Ph} [peptidyl α-ketoamide compound 2 (Ac-PGFSA-CONH-(CH2)4-Ph)] was run?
**A.** 3400 nM

**Q.** Ac-QMESA-{CONH‑(CH2)4‑Ph} (also: C-terminal α-ketoamide) [peptidyl α-ketoamide compound 3 (Ac-QMESA-CONH-(CH2)4-Ph)] was tested. Which “IC50 of inhibition of RHBDL4 proteolysis of the fluorescent substrate IQ6 (in vitro FRET-based cleavage assay; 1 h pre-incubation, 2 h reaction)” value [6] did it give?
**A.** 54 nM

**Q.** With Ac-QMESA-{CONH‑CH(Bn)‑CH2OBn} (also: C-terminal α-ketoamide) [peptidyl α-ketoamide compound 4 (Ac-QMESA-CONH-CH(Bn)-CH2OBn)] as the molecule, how does the “IC50 of inhibition of RHBDL4 proteolysis of the fluorescent substrate IQ6 (in vitro FRET-based cleavage assay; 1 h pre-incubation, 2 h reaction)” value [6] read?
**A.** 85 nM
